target: T1, human A1 adenosine receptors (Homo sapiens, UniProt P30542); test: Displacement of [3H]DPCPX binding at human A1 adenosine receptors expressed in CHO cells; conditions: [3H]DPCPX displacement, n = 3-6, geometric mean (95% confidence limits), read-out: Ki hA1
T1 construct: expressed in transfected cells; host or cells: CHO cells (membranes)
T1 sequence (P30542 1-326): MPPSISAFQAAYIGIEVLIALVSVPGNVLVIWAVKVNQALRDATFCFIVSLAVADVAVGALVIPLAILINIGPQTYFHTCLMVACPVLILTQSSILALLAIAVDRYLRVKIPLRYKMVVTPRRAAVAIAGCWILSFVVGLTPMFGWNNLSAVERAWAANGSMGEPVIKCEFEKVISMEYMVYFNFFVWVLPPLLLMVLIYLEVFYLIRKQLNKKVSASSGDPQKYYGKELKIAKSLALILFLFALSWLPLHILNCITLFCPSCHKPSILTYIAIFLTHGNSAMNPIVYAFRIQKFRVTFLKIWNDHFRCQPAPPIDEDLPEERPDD
Method: The human adenosine receptors have been transfected in CHO cells according with the method previously described by Klotz et al. (Naunyn-Schmied. Arch Pharm. 1998, 357: 1-9). Briefly, the cells are grown adherently and maintained in Dulbecco's Modified Eagles Medium with nutrient mixture F12 (DMEM/F12) without nucleosides, containing 10% fetal calf serum, penicillin (100 U/mL), streptomycin (100 μg/mL), L-glutamine (2 mM) and Geneticin (G418, 0.2 mg/ml) at 37° C. in 5% CO2/95% air. For membrane preparation the culture medium is removed and the cells are washed with phosphate-buffered saline and scraped off T75 flasks in ice-cold hypo tonic buffer (5 mM Tris HCl, 1 mM EDTA, pH 7.4). The cell suspension is homogenized with Polytron, the homogenate is spun for 10 min at 1000×g and the supernatant is then centrifuged for 30 min at 100,000×g. The membrane pellet is suspended in 50 mM Tris HCl buffer (pH 7.4) for A1 adenosine receptors, in 50 mM Tris HCl, 10 mM MgCl2 (pH 7.4) for A2A adenosine receptors, in 50 mM Tris HCl, 10 mM MgCl2, 1 mM EDTA (pH 7.4) for A2B and A3 adenosine receptors.
All new synthesized compounds have been tested to evaluate their affinity to human A1, A2A, A2B and A3 adenosine receptors. Displacement experiments of [^3H]-DPCPX to CHO cells transfected with the human recombinant A1 adenosine receptors are performed for 120 min at 25° C. incubating diluted membranes (50 μg of protein/assay) and at least 6-8 different concentrations of examined antagonists (Varani et al., Mol. Pharmacol., 2000, 57: 968-975). Non-specific binding is determined in the presence of 10 μM of CHA and this is always ≦10% of the total binding. Binding of [^3H]-ZM 241385 to CHO cells transfected with the human recombinant A2A adenosine receptors is performed using a suspension of membranes (50 μg of protein/assay) and at least 6-8 different concentrations of studied antagonists for an incubation time of 60 min at 4° C. Non-specific binding is determined in the presence of 1 μM ZM 241385 and is about 20% of total binding. Competition binding experiments of [^3H]-MRE 2029F20 to CHO cells transfected with the human recombinant A2B adenosine receptors are carried out incubating for 120 min at 4° C. diluted membranes (50 μg of protein/assay) and at least 6-8 different concentrations of examined compounds. Non-specific binding is defined as binding in the presence of 1 μM MRE 3029F20 and is about 25% of total binding. Competition binding experiments of [^3H]-MRE 3008F20 to CHO cells transfected with the human recombinant A3 adenosine receptors^5 are carried out incubating for 120 min at 4° C. diluted membranes (50 μg of protein/assay) and at least 6-8 different concentrations of examined ligands. Non-specific binding is defined as binding in the presence of 1 μM MRE 3008F20 and is about 25% of total binding. Bound and free radioactivity are separated by filtering the assay mixture through Whatman GF/B glass fiber filters using a Micro-Mate 196 cell harvester (Packard Instrument Co.). The filter bound radioactivity is counted on a Top Count (efficiency 57%) with Micro-Scint 20.
The protein concentration is determined according to a Bio-Rad method (Bradford, Anal Biochem. 1976, 72: 248-254) with bovine albumin as a standard reference. Inhibitory binding constant, Ki, values are calculated from those of IC50 according to Cheng & Prusoff equation (Biochem. Pharmacol 1973, 22: 3099-3108): Ki=IC50/(1+[C*]/KD*) where [C*] is the concentration of the radioligand and KD* its dissociation constant. A weighted non linear least-squares curve fitting program LIGAND (Munson et al., Anal. Biochem 1980, 107: 220-239) is used for computer analysis of inhibition experiments Data are expressed as geometric mean with 95% confidence limits in parentheses. Examples of Animal Models

SMILES | Ki [nM]
CCCn1c(=O)c2[nH]c(-c3cc(C)n(CC(=O)Nc4ccccc4)n3)nc2n(CCC)c1=O [Example 1, 2-[3-(2,6-Dioxo-1,3-dipropyl-2,3,6,7-tetrahydro-1H-purin-8-yl)-5-methyl-pyrazol-1-yl]-N-phenyl-acetamide] | 350
CCCn1c(=O)c2[nH]c(-c3cc(C)n(CC(=O)Nc4ccc(I)cc4)n3)nc2n(CCC)c1=O [Example 2, 2-[3-(2,6-Dioxo-1,3-dipropyl-2,3,6,7-tetrahydro-1H-purin-8-yl)-5-methyl-pyrazol-1-yl]-N-(4-iodophenyl)-acetamide] | > 1000
CCCn1c(=O)c2[nH]c(-c3cc(C)n(CC(=O)Nc4ccc(F)cc4)n3)nc2n(CCC)c1=O [Example 5, 2-[3-(2,6-Dioxo-1,3-dipropyl-2,3,6,7-tetrahydro-1H-purin-8-yl)-5-methyl-pyrazol-1-yl]-N-(4-fluoro-phenyl)-acetamide] | 500
CCCn1c(=O)c2[nH]c(-c3cc(C)n(CC(=O)Nc4ccc(OC)cc4)n3)nc2n(CCC)c1=O [Example 6, 2-[3-(2,6-Dioxo-1,3-dipropyl-2,3,6,7-tetrahydro-1H-purin-8-yl)-5-methyl-pyrazol-1-yl]-N-(4-methoxyphenyl)-acetamide] | > 1000
CCCn1c(=O)c2[nH]c(-c3cc(C)n(CC(=O)Nc4ccc(C)c(C)c4)n3)nc2n(CCC)c1=O [Example 7, 2-[3-(2,6-Dioxo-1,3-dipropyl-2,3,6,7-tetrahydro-1H-purin-8-yl)-5-methyl-pyrazol-1-yl]-N-(3,4-dimethylphenyl)-acetamide] | > 1000
CCCn1c(=O)c2[nH]c(-c3cc(C)n(CC(=O)Nc4ccc(OC)c(OC)c4)n3)nc2n(CCC)c1=O [Example 8, 2-[3-(2,6-Dioxo-1,3-dipropyl-2,3,6,7-tetrahydro-1H-purin-8-yl)-5-methyl-pyrazol-1-yl]-N-(3,4-dimethoxyphenyl)-acetamide] | > 1000
CCCn1c(=O)c2[nH]c(-c3ccn(CC(=O)Nc4ccc(Cl)cc4)n3)nc2n(CCC)c1=O [Example 10, 2-[3-(2,6-Dioxo-1,3-dipropyl-2,3,6,7-tetrahydro-1H-purin-8-yl)-pyrazol-1-yl]-N-(4-chloro-phenyl)-acetamide] | 140
CCCn1c(=O)c2[nH]c(-c3cc(C)n(CC(=O)Nc4ccc(C(C)CC)cc4)n3)nc2n(CCC)c1=O (centres unmarked) [Example 12, 2-[3-(2,6-Dioxo-1,3-dipropyl-2,3,6,7-tetrahydro-1H-purin-8-yl)-5-methyl-pyrazol-1-yl]-N-(4-sec-butylphenyl)-acetamide] | > 1000
CCCn1c(=O)c2[nH]c(-c3cc(C)n(CC(=O)Nc4cccc(OC)c4)n3)nc2n(CCC)c1=O [Example 14, 2-[3-(2,6-Dioxo-1,3-dipropyl-2,3,6,7-tetrahydro-1H-purin-8-yl)-5-methyl-pyrazol-1-yl]-N-(3-methoxylphenyl)-acetamide] | 480
CCCn1c(=O)c2[nH]c(-c3cc(C)n(CC(=O)Nc4cccc(Cl)c4)n3)nc2n(CCC)c1=O [Example 15, 2-[3-(2,6-Dioxo-1,3-dipropyl-2,3,6,7-tetrahydro-1H-purin-8-yl)-5-methyl-pyrazol-1-yl]-N-(3-chlorophenyl)-acetamide] | 675
CCCn1c(=O)c2[nH]c(-c3cc(C)n(CC(=O)Nc4ccc(Cl)c(Cl)c4)n3)nc2n(CCC)c1=O [Example 16, 2-[3-(2,6-Dioxo-1,3-dipropyl-2,3,6,7-tetrahydro-1H-purin-8-yl)-5-methyl-pyrazol-1-yl]-N-(3,4-dichlorophenyl)-acetamide] | > 1000
CCCn1c(=O)c2[nH]c(-c3cc(C)n(CC(=O)Nc4ccc(C)cc4)n3)nc2n(CCC)c1=O [Example 17, 2-[3-(2,6-Dioxo-1,3-dipropyl-2,3,6,7-tetrahydro-1H-purin-8-yl)-5-methyl-pyrazol-1-yl]-N-p-tolyl-acetamide] | > 1000
CCCn1c(=O)c2[nH]c(-c3nn(CC(=O)Nc4ccc(Cl)cc4)c(C)c3Cl)nc2n(CCC)c1=O [Example 18, 2-[4-Chloro-3-(2,6-dioxo-1,3-dipropyl-2,3,6,7-tetrahydro-1H-purin-8-yl)-5-methyl-pyrazol-1-yl]-N-(4-chlorophenyl)-acetamide] | > 1000
CCCn1c(=O)c2[nH]c(-c3nn(CC(=O)Nc4ccc(Cl)cc4)c(C)c3Br)nc2n(CCC)c1=O [Example 19, 2-[4-Bromo-3-(2,6-dioxo-1,3-dipropyl-2,3,6,7-tetrahydro-1H-purin-8-yl)-5-methyl-pyrazol-1-yl]-N-(4-chlorophenyl)-acetamide] | > 1000

Source: patent publication US7767685B2, “Adenosine A2B receptor antagonists” (King Pharmaceuticals Research and Development, Inc., priority 2006, dated 2010)
